Laboratory results taken from ChEMBL document CHEMBL1275494, “Microbiological and genotypic analysis of methicillin-resistant Staphylococcus aureus bacteremia” (2008).
Active and inactive are the calls of the source. The rule behind the calls is not given here.

Assays:
Staphylococcus aureus [1] = assay: Antibacterial activity against SCCmec type 4 genotype-positive and methicillin-resistant Staphylococcus aureus by CLSI method; assay type: functional, organism-based
Staphylococcus aureus [2] = assay: Antibacterial activity against SCCmec type 2 genotype-positive and methicillin-resistant Staphylococcus aureus by CLSI method; assay type: functional, organism-based

Structure (SMILES): CN(C)[C@@H]1C(O)=C(C(N)=O)C(=O)[C@@]2(O)C(O)=C3C(=O)c4c(O)cccc4[C@@](C)(O)[C@H]3C[C@@H]12
- Activity (Staphylococcus aureus [1]): inactive

Structure (SMILES): C[C@H]1COc2c(N3CCN(C)CC3)c(F)cc3c(=O)c(C(=O)O)cn1c23
- Activity (Staphylococcus aureus [1]): Active
- Activity (Staphylococcus aureus [2]): inactive

Structure (SMILES): CCC[C@@H]1C[C@@H](C(=O)N[C@@H]([C@H]2O[C@H](SC)[C@H](O)[C@@H](O)[C@H]2O)[C@H](C)Cl)N(C)C1
- Activity (Staphylococcus aureus [1]): Active
- Activity (Staphylococcus aureus [2]): inactive
